Patent publication US20040019088A1, “Use of Epothilones in the treatment of brain diseases associated with proliferative processes” (Schering AG, priority 2002, published 2004)
“And” between values parts separate entries of the source, which are not always exact repeats. Equal entries are not always repeated. Marks after values point to notes of the source that are not given here.

Tests used:
[1] = Mouse bolus injection assay (blood and brain levels of Epothilones); conditions: for Brain plasma ratio: after 20 min, iv application; for concentration at 10 min / concentration at 20 min / concentration at 40 min / AUC(0-t) / Kp: male, SCID, mouse, in vivo, 5 mg/kg; for AUC(0-t) / Kp: iv
Description: Mouse Bolus Injection Assay
(In Vivo Assay for the Evaluation of Blood and Brain Levels of Epothilones)
Male SCID mice (20-25 g, non-leaky) were treated with a single dose of tritium-labeled Epothilones and paclitaxel (5 mg/kg; 7.4 MBq/mg; in 30% Hydroxypropyl-β-cyclodextrin (HPβCD)/NaCl iv bolus injection). Partitioning of radioactivity between blood and brain was measured by liquid scintillation counting (LSC) and HPLC-radioflow at three time points (10, 20 and 40 min) after injection.

Human U373 glioma cells = experiment: In vivo efficacy against xenografted (s.c.) and intracerebral human glioma; conditions: for i. cer. Brain Tumor Volume d 32: i.cer. U373 in NMRI nu/nu-mice; for RTV s.c. Tumors d 25 (Relative Tumor Volume): s.c. U373 in NMRI nu/nu-mice
Description: In vivo assay for the evaluation of efficacy of Epothilones against xenografted and intracerebral human glioma.
(§1) Female NMRI nu/nu-mice (20-28 g) were used for this experiment. Human U373 glioma cells were implanted s.c. (1×10^7/mouse) as well as i.cer. (2×10^5/mouse) on day 0. Treatment was started on day 7 when the s.c. tumors were approximately 0,05 cm^3 in size. […] After termination of the experiment, the size of the brain tumors was determined (Table 2).

[2] = Tolerability (deaths, body weight change) in the U373 glioma study; assay type: in vivo, NMRI nu/nu-mice; conditions: for BWC d 7-17 (Body Weight Change) / Deaths/total (d): NMRI nu/nu-mice
Description: as §1

[3] = in vivo; cited from earlier work
[4] = 5 mg/kg iv bolus, 3H-labeled, male SCID mice
[5] = 10 min after 5 mg/kg iv bolus, 3H-labeled, male SCID mice
[6] = 20 min after 5 mg/kg iv bolus, 3H-labeled, male SCID mice
[7] = 40 min after 5 mg/kg iv bolus, 3H-labeled, male SCID mice
[8] = Group B: 9 mg/kg i.v., days 7, 14
[9] = Group C: 2 mg/kg i.v., days 7, 9, 11, 14, 16, 18
[10] = both schedules (groups B and C) vs. untreated control

| SMILES | Brain AUC (0-40 min) [1, 4] | Brain conc. mean [1, 5] | Brain conc. mean [1, 6] | Brain conc. mean [1, 7] | Brain plasma ratio [1] | concentration at 10 min [1] | concentration at 20 min [1] | concentration at 40 min [1] | AUC(0-t) [1] | Kp [1] | also measured |
| --- | --- | --- | --- | --- | --- | --- | --- | --- | --- | --- | --- |
| CCCC1C(=O)C(C)(C)C(O)CC(=O)OC(C(C)=Cc2csc(C)n2)CC2OC2(C)CCCC(C)C1O (stereo not drawn) [Compound 2] | 35 µg·min/mL | 1.1 µg/g | 1.1 µg/g | 0.8 µg/g | higher brain plasma ratio | – | – | – | – | – | Plasma AUC (0-40 min) [1, 4]: 31 µg·min/mL; Plasma conc. mean [1, 5]: 1600 ng/mL; Plasma conc. mean [1, 6]: 700 ng/mL; Plasma conc. mean [1, 7]: 300 ng/mL; AUC Ratio Brain/Plasma ([1]; partial AUC 0-40 min, 5 mg/kg iv bolus, male SCID mice): 1.2 |
| C=CCC1C(=O)C(C)(C)C(O)CC(=O)OC(c2ccc3sc(C)nc3c2)CC2OC2(C)CCCC(C)C1O (stereo not drawn) [Compound 3, 7,11-dihydroxy-3-(2-methylbenzothiazol-5-yl)-10-(prop-2-en-1-yl)-8,8,12,16-tetramethyl-4,17-dioxabicyclo[14.1.0]heptadecane-5,9-dione] | 20 µg·min/mL | – | – | – | – | 1200 ng/mL and 900 ng/g | 700 ng/mL and 300 ng/g | 300 ng/mL and 600 ng/g | 417 ng·h/mL | 0.8 | i. cer. Brain Tumor Volume d 32 (Human U373 glioma cells; [8]): 0.002* mm^3; RTV s.c. Tumors d 25 (Relative Tumor Volume) (Human U373 glioma cells; [8]): 1.15; i. cer. Brain Tumor Volume d 32 (Human U373 glioma cells; [9]): 0.96 mm^3; RTV s.c. Tumors d 25 (Relative Tumor Volume) (Human U373 glioma cells; [9]): 1.40; Therapeutic effect on i.cer. U373 brain tumors (Human U373 glioma cells; [10]): significant therapeutic effect; Therapeutic effect on s.c. U373 tumors (Human U373 glioma cells; [10]): significant therapeutic effect; BWC d 7-17 (Body Weight Change) [2, 8]: −7%; Deaths/total (d) [2, 8]: 0/10; BWC d 7-17 (Body Weight Change) [2, 9]: −3%; Deaths/total (d) [2, 9]: 1/10; Body weight loss ([2]; treatment groups B and C): Only a moderate body weight loss (not significant) |
| CC(=O)O[C@H]1C(=O)[C@@]2(C)[C@H]([C@H](OC(=O)c3ccccc3)[C@]3(O)C[C@H](OC(=O)[C@H](O)[C@@H](NC(=O)c4ccccc4)c4ccccc4)C(C)=C1C3(C)C)[C@]1(OC(C)=O)CO[C@@H]1C[C@@H]2O [Paclitaxel, reference compound] | 0 µg·min/mL | <LOQ | <LOQ | <LOQ | – | 800 ng/mL | 600 ng/mL | 200 ng/mL | 317 ng·h/mL | – | Ability to penetrate the BBB [3]: only low ability to penetrate the BBB; Detection in the brain ([1]; 40 minutes after application): detected in the brain in considerable amounts; Concentration in brain samples ([1]; all brain samples (10, 20, 40 min)): below the limit of quantitation |
| CCCC1C(=O)C(C)(C)C(O)CC(=O)OC(C(C)=Cc2csc(C)n2)CC=C(C)CCCC(C)C1O (stereo not drawn) [Compound 1, 4,8-dihydroxy-16-(1-methyl-2-(2-methyl-4-thiazolyl)-ethenyl)-1-oxa-7-(1-propyl)-5,5,9,13-tetramethyl-cyclohexadec-13-ene-2,6-dione] | 21 µg·min/mL | – | – | – | higher brain plasma ratio | 800 ng/mL and 300 ng/g | 600 ng/mL and 800 ng/g | 300 ng/mL and 600 ng/g | 333 ng·h/mL | 1 | – |
